Consider 17 compounds from US12655150B2 (Cedilla Therapeutics, Inc., priority 2021, dated 2026).

Bounds are passed on as bounds.

The test system of the assay is NCI-H226. Description: 72H TEAD Proliferation Assay (Cell Titer Glo 2.0). The assay is classed as cell-based. The conditions noted are these: Homo sapiens, NCI-H226, 72 h, CTG 2.0, cell line not given (NCI-H226 responsive, NCI-H28 non-responsive). Summed up:
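Growth read-out is ATP luminescence (CellTiter-Glo 2.0) after 72 h compound exposure, corrected for no-CTG background and day-0 values, with GI50 from nonlinear regression. Sensitive line NCI-H226 (NF2-deficient); non-responsive NCI-H28 (NF2 wild type) distinguishes TEAD-driven from nonspecific growth inhibition.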
Compound `CC(C)(C)c1ccc(-c2nc3cc(CO)ccc3n3ccnc23)cc1` [I-77, (4-(4-(tert-Butyl)phenyl)imidazo[1,2-a]quinoxalin-7-yl)methanol] had a GI50 of over 10000 nM.
The value for `CC(C)(C)c1ccc(-c2nc3cc(C(N)=O)ccc3n3ccnc23)cc1` [I-73, 4-(4-(tert-Butyl)phenyl)imidazo[1,2-a]quinoxaline-7-carboxamide] was 1000 to 5000 nM; that for `C=CC(=O)NC1CCCc2ccc(-c3ccc(C(F)(F)F)cc3)nc21` (centres unmarked) [I-412, N-(2-(4-(trifluoromethyl)phenyl)-5,6,7,8-tetrahydroquinolin-8-yl)acrylamide] was 5000 to 10000 nM; that for `C=CC(=O)NCc1nc(-c2ccc(C(F)(F)F)cc2)c2ccccc2n1` [I-167, N-((4-(4-(trifluoromethyl)phenyl)quinazolin-2-yl)methyl)acrylamide] was at most 1000 nM.
The value for `C=CC(=O)NCc1cn2cccc2c(-c2ccc(C(F)(F)F)cn2)n1` [I-314, N-((1-(5-(Trifluoromethyl)pyridin-2-yl)pyrrolo[1,2-a]pyrazin-3-yl)methyl)acrylamide] was at most 1000 nM; that for `CC[C@H](CO)NC(=O)c1ccc2c(C)cc(-c3ccc(C(F)(F)F)cc3)nc2c1` [I-265, (R)—N-(1-hydroxybutan-2-yl)-4-methyl-2-(4-(trifluoromethyl)phenyl)quinoline-7-carboxamide] was at most 1000 nM; that for `CNS(=O)(=O)c1ccc2c(c1)nc(-c1ccc(C(C)(C)C)cc1)c1cccn12` [I-310, 4-(4-(tert-butyl)phenyl)-N-methylpyrrolo[1,2-a]quinoxaline-7-sulfonamide] was 1000 to 5000 nM.
The value for `CC(C)(C)c1ccc(-n2ccc3cc(C(=O)O)ccc32)cc1` [I-101, 1-(4-(tert-Butyl)phenyl)-1H-indole-5-carboxylic acid] was over 10000 nM; that for `C=CC(=O)NCc1cn2c(C(F)(F)F)cnc2c(-c2ccc(C(F)(F)F)cc2)n1` [I-246, N-((3-(trifluoromethyl)-8-(4-(trifluoromethyl)phenyl)imidazo[1,2-a]pyrazin-6-yl)methyl)acrylamide] was at most 1000 nM; that for `Cc1cc(-c2ccc(C(F)(F)F)cc2)nc2cc(C(=O)N[C@@H](C)CO)ccc12` [I-262, (S)—N-(1-hydroxypropan-2-yl)-4-methyl-2-(4-(trifluoromethyl)phenyl)quinoline-7-carboxamide] was at most 1000 nM.
With `C=CC(=O)NCc1cn2ccnc2c(Oc2cccc(C(C)(C)C)c2)n1` [I-441, N-((8-(3-(tert-butyl)phenoxy)imidazo[1,2-a]pyrazin-6-yl)methyl)acrylamide], the GI50 was at most 1000 nM.
The value for `O=C(O)c1ccc2c(c1)nc(N1CCC(F)(F)CC1)c1cccn12` [I-39, 4-(4,4-Difluoropiperidin-1-yl) pyrrolo[1,2-a]quinoxaline-7-carboxylic acid] was over 10000 nM; that for `O=C(O)c1ccc2c(c1)nc(N1CCC3(CCC3)CC1)c1cccn12` [I-6, 4-(7-Azaspiro[3.5]nonan-7-yl)pyrrolo[1,2-a]quinoxaline-7-carboxylic acid] was at most 1000 nM; that for `O=C(O)C1CCN(c2cn3ccnc3c(-c3ccc(C(F)(F)F)cc3)n2)C1` (centres unmarked) [I-234, 1-(8-(4-(Trifluoromethyl)phenyl)imidazo[1,2-a]pyrazin-6-yl)pyrrolidine-3-carboxylic acid] was 5000 to 10000 nM.
The value for `Cc1cc(-c2ccc(C(F)(F)F)cc2)nc2cc(C(=O)O)ccc12` [I-89, 4-Methyl-2-(4-(trifluoromethyl)phenyl)quinoline-7-carboxylic acid] was at most 1000 nM; that for `COc1cc(-c2ccc(C(F)(F)F)cc2)nc2cc(C(=O)N[C@@H](CO)C(C)C)ccc12` [I-343, (R)—N-(1-hydroxy-3-methylbutan-2-yl)-4-methoxy-2-(4-(trifluoromethyl)phenyl)quinoline-7-carboxamide] was at most 1000 nM; that for `CC(C)(C)c1ccc(-c2nc3cc(C(=O)O)ccc3n3ccnc23)c(F)c1` [I-59, 4-(4-(tert-Butyl)-2-fluorophenyl)imidazo[1,2-a]quinoxaline-7-carboxylic acid] was 1000 to 5000 nM.
